Experimental data as given in the supplement of paper PMC10307832.

Columns and labels:
Test in all cases: relative viability (nuclei count vs DMSO), 5 days (fraction); higher = more cells survive
[1] = compound: CCN1C(=O)C2=CC(=C(N=C2N(C1=O)C3CC3)N)C(=O)N + Nc1ncn([C@H]2C[C@H](O)[C@@H](CO)O2)c(=O)n1 [Decitabine] (partner 2 µM)
Summary of the method: (§1)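 Lung cancer cell lines in 1536-well plates were dosed by pin tool the day after seeding, either with one drug alone or with a fixed anchor-drug dose plus five library-drug doses (not always all listed) in √10 steps. After 5 days, cells were fixed and their nuclei stained in one step (final 0.05% Triton X-100, 1% formaldehyde, 1 ug/ml Hoechst), then counted on 4× images. Relative viability is the nuclei count in treated wells divided by that in vehicle wells. Values are medians of duplicate plates.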

[2] = compound: CCN1C(=O)C2=CC(=C(N=C2N(C1=O)C3CC3)N)C(=O)N + CCNC(=O)c1noc(-c2cc(C(C)C)c(O)cc2O)c1-c1ccc(CN2CCOCC2)cc1 [Luminespib] (partner 0.01 µM)
Summary of the method: as §1

[3] = compound: CCN1C(=O)C2=CC(=C(N=C2N(C1=O)C3CC3)N)C(=O)N + CC(=O)Nc1cccc(-n2c(=O)n(C3CC3)c(=O)c3c(Nc4ccc(I)cc4F)n(C)c(=O)c(C)c32)c1 [Trametinib] (partner 0.02 µM)
Summary of the method: as §1

[4] = compound: CCN1C(=O)C2=CC(=C(N=C2N(C1=O)C3CC3)N)C(=O)N + CC1(C)CCC(c2ccc(Cl)cc2)=C(CN2CCN(c3ccc(C(=O)NS(=O)(=O)c4ccc(N[C@H](CCN5CCOCC5)CSc5ccccc5)c(S(=O)(=O)C(F)(F)F)c4)cc3)CC2)C1 [Navitoclax] (partner 0.5 µM)
Summary of the method: as §1

[5] = compound: CCN1C(=O)C2=CC(=C(N=C2N(C1=O)C3CC3)N)C(=O)N + NC(=O)Nc1cc(-c2cccc(F)c2)sc1C(=O)N[C@H]1CCCNC1 [AZD7762] (partner 0.2 µM)
Summary of the method: as §1

Cell Line | relative viability ([1]; first compound 0.253 µM) | relative viability ([1]; first compound 0.8 µM) | relative viability ([1]; first compound 2.53 µM) | relative viability ([1]; first compound 8 µM) | relative viability ([2]; first compound 0.253 µM) | relative viability ([2]; first compound 0.8 µM) | relative viability ([2]; first compound 2.53 µM) | relative viability ([2]; first compound 8 µM) | relative viability ([3]; first compound 0.253 µM) | relative viability ([3]; first compound 0.8 µM) | relative viability ([3]; first compound 2.53 µM) | relative viability ([3]; first compound 8 µM) | relative viability ([4]; first compound 0.253 µM) | relative viability ([4]; first compound 0.8 µM) | relative viability ([4]; first compound 2.53 µM) | relative viability ([4]; first compound 8 µM) | relative viability ([5]; first compound 0.253 µM) | relative viability ([5]; first compound 0.8 µM) | relative viability ([5]; first compound 2.53 µM) | relative viability ([5]; first compound 8 µM)
NCI-H1651 | 0.534 | 0.585 | 0.582 | 0.386 | 0.856 | 0.813 | 0.874 | 0.885 | 0.784 | 0.835 | 0.778 | 0.819 | 0.996 | 1.27 | 0.969 | 1.03 | 0.463 | 0.434 | 0.442 | 0.399
NCI-H1666 | 0.615 | 0.688 | 0.728 | 0.68 |  | 1.02 | 1.07 | 1.05 | 0.906 | 0.778 | 0.83 | 0.815 | 0.991 | 0.942 | 0.645 | 0.867 | 0.888 | 0.824 | 0.909 | 0.84
NCI-H1734 | 0.499 | 0.488 | 0.502 | 0.565 | 0.67 | 0.215 | 0.191 | 0.233 | 0.742 | 0.593 | 0.609 | 0.74 | 0.737 | 0.813 | 0.778 | 0.888 | 0.514 | 0.543 | 0.51 | 0.566
NCI-H1755 | 0.771 | 0.743 | 0.704 | 0.652 | 0.455 | 0.412 | 0.528 | 0.51 | 0.771 | 0.762 | 0.746 | 0.716 | 1.03 | 0.936 | 0.98 | 0.938 | 0.522 | 0.496 | 0.408 | 0.533
NCI-H1792 | 0.652 | 0.54 | 0.494 | 0.576 | 0.586 | 0.4 | 0.541 | 0.419 | 0.457 | 0.332 | 0.346 | 0.39 | 0.648 | 0.533 | 0.834 | 0.564 | 0.779 | 0.624 | 0.693 | 0.508
NCI-H1793 | 0.527 | 0.6 | 0.531 | 0.546 |  | 0.183 | 0.177 | 0.15 | 0.428 | 0.387 | 0.433 | 0.445 | 0.701 | 0.385 |  | 0.404 | 0.409 | 0.408 | 0.649 | 0.501
NCI-H1915 | 0.243 | 0.261 | 0.252 | 0.249 | 0.852 | 0.775 | 0.873 | 0.892 | 0.297 | 0.294 | 0.305 | 0.337 | 0.738 | 0.799 | 0.752 | 0.711 | 0.722 | 0.7 | 0.712 | 0.594
NCI-H1944 | 0.485 | 0.423 | 0.393 | 0.434 | 0.795 | 0.711 | 0.618 | 0.723 | 0.451 | 0.445 | 0.353 | 0.427 | 1.02 | 1.04 | 0.978 | 1.02 | 0.541 | 0.479 | 0.528 | 0.487
NCI-H1975 | 0.352 | 0.401 | 0.388 | 0.365 | 0.167 | 0.283 | 0.222 | 0.276 | 0.343 | 0.335 | 0.335 | 0.336 | 1.31 | 1.06 | 1.19 | 1.02 | 0.758 | 0.622 | 0.83 | 0.7
NCI-H1993 | 0.677 | 0.586 | 0.555 | 0.701 | 1.78 | 0.877 | 0.612 | 0.832 | 0.587 | 0.576 | 0.511 | 0.491 | 0.994 | 0.875 | 0.797 | 0.757 | 0.74 | 0.805 | 0.847 | 0.771
NCI-H2085 | 0.566 | 0.522 | 0.563 | 0.524 | 0.378 | 0.408 | 0.355 | 0.493 | 0.588 | 0.538 | 0.52 | 0.428 | 1.15 | 1.1 | 1.2 | 0.997 | 0.989 | 0.915 | 0.921 | 1.04
NCI-H2087 | 0.324 | 0.251 | 0.297 | 0.298 | 0.229 | 0.193 | 0.132 | 0.189 | 0.228 | 0.184 | 0.217 | 0.193 | 0.94 | 1.11 | 0.994 | 0.941 | 1.35 | 1.32 | 1.36 | 1.28
NCI-H2126 | 0.552 | 0.544 | 0.541 | 0.622 | 0.877 | 0.911 | 0.993 | 0.779 | 0.574 | 0.583 | 0.56 | 0.554 | 0.86 | 0.884 | 0.736 | 0.775 | 1.02 | 0.967 | 0.941 | 0.958
NCI-H2170 | 0.495 | 0.488 | 0.462 | 0.404 | 0.686 | 0.879 | 0.716 | 0.746 | 0.866 | 0.817 | 0.891 | 1.01 | 0.576 | 0.544 | 0.608 | 0.595 | 0.889 | 0.846 | 0.882 | 0.867
NCI-H2347 | 0.722 | 0.66 | 0.622 | 0.643 | 1.03 | 0.469 | 0.774 | 0.341 | 0.183 | 0.299 | 0.307 | 0.307 | 0.816 | 0.871 | 0.801 | 0.749 | 0.769 | 0.785 | 0.695 | 0.817
NCI-H2405 | 0.771 |  | 0.718 | 0.669 | 0.668 | 0.844 | 0.755 | 0.652 | 0.689 |  | 0.661 | 0.602 | 1.13 | 0.882 | 1.01 | 1.07 | 0.868 |  | 0.928 | 0.725
